Measurements reported in patent publication US11028111B2, “Compound for treating metabolic diseases and preparation method and use thereof” (Xi' An Biocare Pharma Ltd., priority 2017, dated 2021).

Experiments:
[1] = tested on: 17α-Ethinylestradiol (E2-17α) induced cholestasis in rats; experiment: Serum ALT, AST, ALP in E2-17α induced cholestasis rats; type: in vivo, Sprague Dawley rats; details: for Serum ALP / Serum ALT / Serum AST: E2-17α cholestasis rats after intragastric administration, x ± s; for Values of ALT, AST, and ALP (serum): E2-17α cholestasis rats, in words
Procedure: (§1) 17α-Ethinylestradiol (E2-17α) was administered by subcutaneous injection into the neck for model establishment for 7 days. Meantime, the test compounds were suspended in a 1% CMC-Na solution and administered by intragastric administration for 7 days during the E2-17α modeling.
(§2) E2-17α in propylene glycol was administered to rats for 7 days to establish the model, and different test samples in CMC-Na solution were administered by intragastric administration. On the 8th day, 1 mL of rat fasting blood sample was collected for detection of serum biochemical indicators, and E2-17α in propylene glycol was continuously administered to establish the model, and different test samples CMC-Na solution were administered by intragastric administration. After 0.5 hours of administration on the 9th day, the rats were weighed and anesthetized with 10% urethane (10 mL/kg) via intraperitoneal injection. After anesthesia, the rat was fixed on a board. A midline abdominal incision was made from the upper acetabular area, and the incision was about 2 to 3 cm. The indoor temperature should be maintained during the experiment, the body temperature of the rats was maintained and bile outflow was promoted. Handle of ophthalmic forceps was used to turn the liver up and find the duodenum and stomach junction. A suture (size 0) was placed at the junction to reserve. On the duodenum, about 2 cm away from the pylorus, a thin tube with a yellow transparent tube perpendicular to the duodenum could be found passing through the pancreas, that is, the common bile duct. At the junction of the common bile duct and the duodenum, the common bile duct was separated by an ophthalmic curved forceps, but was careful not to break the small blood vessels around the bile duct and avoided stimulating the pancreatic tissue by hand. After the separation, two sutures were place, and the suture close to the intestine end was ligated, as a traction suture, ophthalmic scissors were used to obliquely cut a small opening in the wall of the tube, a prepared pancreatic juice collection tube was inserted into the small opening. A mixture of yellow bile and pancreatic juice flowed out immediately after the insertion. The tube was ligated and fixed, and this tube was used to collect bile. After completion of the intubation, the skin was sutured. The other end of the bile duct intubation was taken out, flowing out to a fixed 0.5 mL centrifuge tube. Bile was continuously collected 8 times once every 15 minutes, until 120 minutes.
The blood sample was allowed to stand in a 37° C. water bath for 10 minutes, centrifuged at 3000 rpm (1368 g)×10 min, the serum was separated conventionally, dispensed and frozen at −20° C. for storage. The indicators to be detected in serum included ALT, AST, and ALP. The detection methods of the above indicators were all carried out in accordance with the relevant instructions of the kit.
(§3) The data were analyzed using SPSS18.0 statistics software. Measurement data were compared between the two groups using the t test. Multiple groups of means were compared using one-way analysis of variance (ANOVA) and multiple comparisons between groups. Data mean±standard error (Mean±SEM.) or mean±standard deviation (Mean±SD.).

[2] = tested on: 17α-Ethinylestradiol (E2-17α) induced cholestasis in rats; experiment: Bile discharge in 17α-ethinylestradiol (E2-17α) induced cholestasis in rats; type: in vivo, Sprague Dawley rats; details: for Bile discharge amount compared with the ursodeoxycholic acid group: 105 minutes after administration, UDCA 15 mg/kg; for Bile flow rate compared with the E2-17α group / Effect on ameliorating intrahepatic cholestasis, promoting bile excretion: E2-17α cholestasis rats; for Bile flow rate compared with the E2-17α group: P<0.05 vs E2-17α; for Effect on ameliorating intrahepatic cholestasis, promoting bile excretion: conclusion
Procedure: Preparation of 1.0% CMC-Na solution: 1 p CMC-Na powder was weighed and added to 100 mL (50° C.) of distilled water, the mixture was rapidly stirred with a stirrer for 1 hour to fully swell, thereby to obtain a 1% CMC-Na solution.
Preparation of E2-17α solution in propylene glycol: 54/0.98=56 mp of E2-17α was weighed, dissolved in […] of propane-1,2-diol, shaked by a vortexer for 1 hour, thereby to obtain a 7 mp/mL suspension of E2-17α.
as §1, §2
After completion of the intubation, the skin was sutured to prevent water evaporation of the abdominal cavity. The other end of the bile duct intubation was taken out, and the bile flowed out to a fixed 0.5 mL collection tube. Bile was continuously collected 8 times once every 15 minutes for a total of 120 minutes. Before the experiment, the collection tube was accurately weighed using an analytical balance. After the bile was collected in the experiment, the total weight of the bile and the collection tube was weighed, and the weight of the bile in the tube was calculated by subtraction and converted to a volume based on 1 g/mL.
as §3

[3] = tested on: rat model of cirrhotic portal hypertension (TAA); experiment: Portal vein pressure in TAA-induced rat model of cirrhotic portal hypertension; type: in vivo, rats; details: i.g.
Procedure: 1) Preparation of saline solution of TAA: 10 g of thioacetamide (TAA) was weighed and dissolved in 100 mL of saline solution, and then filtered through a 0.22 μm sterile membrane filter into a sterile bottle.
2) Preparation of 0.5% CMC-Na suspension of test compound: 400 mg of Compound 1-H, Compound 1-IP, Compound 1-Cl, Compound 1-Mel or Compound 2-0 were weighed and dissolved in 100 mL of 0.5% CMC-Na solution, and shaken by a vortexer for 30 minutes, thereby to obtain 20 mg/Kg (high dose) groups. That is, CMC-Na suspension of 4 mg/mL of Compounds 1-H, 1-IP, 1-Cl, 1-Mel or 2-0. For the middle and low dose groups, drug preparation methods were the same.
(§4) A rat model of cirrhotic portal hypertension was established by intraperitoneal injection of TAA. Except that the blank control group was intraperitoneally injected with saline, remaining animals were intraperitoneally injected (i.p.) with 10% thioacetamide (TAA) in saline solution to establish the model. The dose was 200 mg/Kg, and the administration volume was 2 mL/Kg. All experimental animals were intraperitoneally injected with TAA or an equal volume of saline once every three days. Before each dose, the rat shaving beddings should be replaced by clean ones in advance. The body weight was measured once every two modeling administration. The body weight of the rats increased or decreased by 10% compared with the previous one, the dose of TAA increased or decreased by […] correspondingly. The administration was individualized to strictly control body weight change of each rat, which could effectively improve the success rate and uniformity of modeling.
The successfully modeled animals were randomly grouped, 12 rats per group, and 20 rats in the blank control group. Portal hypertension was induced by TAA in rats, and a portal hypertension model was established after 13 days. The test compound was administered once a day for 10 days. […]
Rats were fasted for 12 hours before the experiment, and were anesthetized with 10% chloral hydrate via intraperitoneal injection. […] Stable portal vein pressure was measured. […]

[4] = tested on: rat model of cirrhotic portal hypertension (TAA); experiment: Serum indicators (ALT, AST, ALP, ALB, γ-GT, TBA) in TAA cirrhotic portal hypertension rats; type: in vivo; details: for Serum ALT level / Serum AST level: P<0.05
Procedure: as §4
(§5) The successfully modeled animals were randomly grouped, 12 rats per group, and 20 rats in the blank control group. Portal hypertension was induced by TAA in rats, and a portal hypertension model was established after 13 days. The test compound was administered once a day for 10 days. The specific groupings are shown as follows:
At the end of the administration, orbital blood was collected from the rats. The blood sample was placed in a 37° C. water bath for 10 minutes, centrifuged for 10 minutes at 3000 r/min (1370 g). Upper layer of the serum was taken and detected directly, or temporarily stored at −80° C., for serologic indicator measurement. After the blood samples were collected, the rats were fed with foods and water for 3 days.
1) 1.5 mL of orbital blood was collected before the experiment, of which the steps were the same as the aforesaid steps, to measure serum ALT, AST, ALP, γ-GT and TBA contents.

[5] = tested on: rat model of cirrhotic portal hypertension (TAA); experiment: Liver appearance and liver pathological sections (Masson, HE) in TAA cirrhotic portal hypertension rats; type: in vivo
Procedure: as §4, §5
2) A small piece at same part of the liver of the rat was cut and fixed in a 10% formaldehyde solution for tissue section pathology observation. An appropriate size of the liver was cut off, and the blood on the surface was washed off quickly with saline, put into a sterile EP tube, cryopreserved in liquid nitrogen for subsequent experiments.

[6] = all administration groups, P<0.05, P<0.01

| Structure (SMILES) | Serum ALP [1] [U/L] | Serum ALT [1] [U/L] | Serum AST [1] [U/L] | Values of ALT, AST, and ALP (serum) [1] | Bile discharge amount compared with the ursodeoxycholic acid group [2] | Bile flow rate compared with the E2-17α group [2] | Effect on ameliorating intrahepatic cholestasis, promoting bile excretion [2] | also measured |
| --- | --- | --- | --- | --- | --- | --- | --- | --- |
| CC[C@@H]1C2C[C@H](O)CC[C@]2(C)C2CC[C@@]3(C)C(CC[C@@H]3[C@H](C)CCOP3(=O)OCC[C@@H](c4ccnc(Cl)c4)O3)C2[C@@H]1O (some centres unmarked) [Compound 1-Cl] | 226.65 ± 12.38 | 77.36 ± 11.42 | 230.89 ± 12.38 | lower | significantly higher | significantly increased | significant effect |  |
| CC[C@@H]1C2C[C@H](O)CC[C@]2(C)C2CC[C@@]3(C)C(CC[C@@H]3[C@H](C)CCO[P@@]3(=O)OCC[C@@H](c4ccncc4)O3)C2[C@@H]1O (some centres unmarked) [Compound 1-H] | 218.64 ± 18.94 | 72.36 ± 14.74 | 228.82 ± 17.74 | lower | significantly higher | significantly increased | significant effect | Mean percentage change of portal vein pressure (vs mean of TAA group) ([3]; TAA + 5 mg/Kg): > 10%; Mean percentage change of portal vein pressure (vs mean of TAA group) ([3]; TAA + 10 mg/Kg): > 10%; Mean percentage change of portal vein pressure (vs mean of TAA group) ([3]; TAA + 20 mg/Kg): > 10%; Serum ALT level ([4]; 5 mg/Kg group): decreased; Serum AST level ([4]; 5 mg/Kg group): decreased; Serum ALT level ([4]; 10 mg/Kg group): decreased; Serum AST level ([4]; 10 mg/Kg group): decreased; Serum ALT level ([4]; 20 mg/Kg group): decreased; Serum AST level ([4]; 20 mg/Kg group): decreased; Serum TBA level ([4]; all administration groups, P<0.01): decreased; Serum ALP level (FIG. 10 (C)) [4, 6]: decreased; Serum γ-GT level [4, 6]: decreased; Appearance of liver and spleen (liver cirrhosis nodules) compared with TAA group ([5]; TAA + 5 mg/Kg): milder; Liver pathological sections (Masson, HE): liver fibrosis ([5]; TAA + 5 mg/Kg): symptoms of liver fibrosis were ameliorated; Effect on hyperplasia of liver fibrous tissue and pseudolobule formation (pathological indicators) ([5]; TAA rats, all dose groups): certain improvement effects |
| CC(C)[C@@H]1C2C[C@H](O)CC[C@]2(C)C2CC[C@@]3(C)C(CC[C@@H]3[C@H](C)CCOP3(=O)OCC[C@@H](c4ccncc4)O3)C2[C@@H]1O (some centres unmarked) [Compound 1-IP] | 230.92 ± 14.00 | 87.42 ± 11.72 | 258.83 ± 10.82 | lower |  | significantly increased | significant effect |  |
| CC[C@@H]1C2C[C@H](O)CC[C@]2(C)C2CC[C@@]3(C)C(CC[C@@H]3[C@H](C)CCOP3(=O)OC(C)C[C@@H](c4ccncc4)O3)C2[C@@H]1O (some centres unmarked) [Compound 1-Me1] | 235.64 ± 16.26 | 80.64 ± 13.22 | 252.18 ± 16.59 | lower |  | significantly increased | significant effect |  |
| CC[C@@H]1C2C[C@H](O)CC[C@]2(C)C2CC[C@@]3(C)C(CC[C@@H]3[C@H](C)CCO[P@](=O)(N[C@@H](C)C(=O)COC(C)C)Oc3ccccc3)C2[C@@H]1O (some centres unmarked) [Compound 2-0] | 220.35 ± 12.92 | 78.64 ± 10.65 | 236.59 ± 13.06 | lower |  | significantly increased | significant effect |  |
| C[C@H](CCC(=O)O)[C@H]1CC[C@H]2[C@@H]3[C@@H](O)C[C@@H]4C[C@H](O)CC[C@]4(C)[C@H]3CC[C@]12C [UDCA, ursodeoxycholic acid, reference compound] | 242.18 ± 12.10 | 85.55 ± 13.80 | 263.36 ± 15.35 |  |  |  |  |  |
